Data from article PMC4767442 (Oncotarget, 2015).

Legend:
[1] = tested on: HL-60 human promyelocytic leukemia cell line; assay: MTT proliferation/viability assay, HL-60; format: cell-based; conditions: 72 h/37°C, mean ± S.D.
Method: The MCF-7 human breast adenocarcinoma cell line was purchased from the European Collection of Cell Cultures (U.K.). The HL-60 human promyelocytic leukemia cell line, HCT116 human colorectal carcinoma cell line, H9c2 rat heart-derived myoblast cell line and 3T3 mouse embryo fibroblast line, were obtained from the American Type Culture Collection (VA, U.S.A.). Cells were cultured in Dulbecco's modified Eagle's medium (DMEM, Lonza, Switzerland) with or without (for MCF-7 cells only) phenol red, supplemented with 10% heat-inactivated fetal bovine serum (FBS; Lonza, Switzerland), 1% penicillin/streptomycin solution (Lonza, Switzerland) and 10 mM HEPES buffer (pH 7.0-7.6; Sigma-Aldrich, Germany). The HL-60 cell line was maintained in RPMI medium (Sigma-Aldrich, Germany) supplemented with 10% heat-inactivated FBS and 1% penicillin/streptomycin solution. All cell lines were cultured in 75 cm^2 tissue culture flasks (Switzerland) at 37°C in a humidified atmosphere of 5% CO2. Sub-confluent cells or, in the case of HL-60 cells, a cell suspension, were sub-cultured every 3-4 days.
Cells were seeded in 96-well plates for 24 h/37°C at a density of 5,000 (MCF-7), 10,000 (HL-60), 2,000 (HCT116) and 10,000 (3T3 and H9c2) cells/well. For 3T3 and H9c2 cells, the medium was changed to serum- and pyruvate-free DMEM 24 h prior to the experiments. Anti-proliferative and cytotoxicity effects of the compounds were studied at different concentrations after incubations for 72 h/37°C. Viabilities of cells were determined using MTT assays (Sigma-Aldrich, Germany) according to the manufacturer's instructions on a Tecan Infinite 200M plate reader (Tecan, Austria). The proliferation/viability of treated groups was expressed as a percentage of the untreated controls (100%).

[2] = tested on: cellular labile iron pools; assay: Fluorimetric calcein-AM assay of intracellular iron chelation; format: cell-based; conditions: 10 μmol·L^−1
Method: Iron chelation efficiency of the compounds at a concentration of 10 μmol·L^−1 was determined via 3 methods: (1) the calcein assay; (2) the ability of the ligands to induce ^59Fe mobilization from cells prelabeled with ^59Fe-transferrin; and (3) the efficacy of these agents to inhibit the uptake of ^59Fe from ^59Fe-transferrin [22, 38–40].
The fluorimetric calcein-AM assay was performed by established methods, as described previously. The Fe chelation efficiency of the metabolites in cells was expressed as a percentage of that of the parent chelator, Dp44mT or DpC (100%). For studies assessing the ability of these agents to induce ^59Fe mobilization and inhibit ^59Fe uptake from ^59Fe-transferrin by cells, human transferrin (Sigma-Aldrich, Germany) was labeled with ^59Fe (PerkinElmer, MA, USA) to generate ^59Fe-transferrin at a final specific activity of 500 pCi/pmol Fe, as previously described. The unbound ^59Fe was removed by exhaustive vacuum dialysis against a large excess of 0.15 M NaCl buffered to pH 7.4 with 1.4% NaHCO3 by standard methods.

[3] = Post-preparative stability in the autosampler at 10°C; format: physicochemical; conditions: for decomposition on storage (in words): 24 h storage in the autosampler at 10°C; for Post-preparative stability: autosampler 10°C, 24 h
Method: The UHPLC-MS/MS methods for quantitative assays were validated with respect to selectivity, linearity, precision, accuracy, stability, recovery, matrix effects and dilution integrity (see […]
Supplementary Table 1-3). […]
Stability was assessed at low, medium and high concentration levels. Long -term stability was assessed for plasma samples at -80°C over a period of 7 days (three aliquots per level; Supplementary Table 3). […]

MCF-7 cells = assay: In-vitro metabolism of the drugs in MCF-7 cells (HPLC-MS); format: in vitro ADME, human; conditions: MCF-7, 10 μmol·L^−1, 12 h, 37°C
Method: (§1) Breast cancer cells (MCF-7) and H9c2 heart-derived myoblasts were seeded in 100-mm Petri dishes (1,000,000 cells/dish) for 24 h/37°C. Freshly prepared stock solutions of Dp44mT and DpC in DMSO (Sigma-Aldrich, Germany) were diluted in culture medium to the required working concentration.
(§2) The cells were incubated for 12 h (37°C) with either Dp44mT or DpC at a concentration of 10 μmol·L^−1. After this incubation, the cells were harvested, washed twice with ice-cold PBS buffer, centrifuged (790 x g) and precipitated with acetonitrile (200 μL/10^6 cells) prior to the analysis. The overlaying medium was also analyzed to search for possible metabolites. […] All samples were analyzed using HPLC-MS as described below in the Section: HPLC-MS method to identify metabolites of the drugs.
(§3) To search for the metabolites, plasma was precipitated with methanol or acetonitrile (plasma/solvent ratio – 1:3, v/v), treated using solid phase extraction (SPE; Discovery DSC-PH, Supelco, PA, U.S.A.), or liquid-liquid extraction with various solvents (ethyl acetate, toluene, dichloromethane). […] These samples were then analyzed using HPLC-MS with ion trap mass analyzer implementing the settings described previously with minor modifications (for details of the analyses see Supplementary Material, part 2.1). […]

[4] = tested on: H9c2 heart-derived myoblasts; assay: In-vitro metabolism of the drugs in H9c2 cells (HPLC-MS); format: in vitro ADME, rat; conditions: H9c2, 10 μmol·L^−1, 12 h, 37°C
Method: as §1, §2, §3

[5] = parameters: method as in PMID 21658021; conditions: cited from earlier work
[6] = tested on: oxyhemoglobin in red blood cells; parameters: method as in PMID 22508546; conditions: cited from earlier work
[7] = high concentration level (2.105-3.115 µmol·L-1)
[8] = low concentration level (0.035-0.156 µmol·L-1)
[9] = medium concentration level (0.702-1.558 µmol·L-1)

Structure (SMILES) | IC50 [1] | intracellular Fe chelation efficacy (in words) [2] | decomposition on storage (in words) [3] | Post-preparative stability [3, 7] | Post-preparative stability [3, 8] | Post-preparative stability [3, 9] | metabolism in cancer cells (MCF-7 cells) | metabolism in heart-derived myoblasts [4] | toxicity after oral administration [5] | oxidation of oxyhemoglobin to methemoglobin [6]
CN(C)C(=S)NN=C(c1ccccn1)c1ccccn1 [Dp44mT, di(2-pyridyl)ketone 4,4-dimethyl-3-thiosemicarbazone] | 2 nM | high intracellular chelation efficacy | No significant decomposition | 98.90% | 93.70% | 95.92% | do not undergo significant metabolism | do not undergo significant metabolism | toxic after oral administration | –
CN(C(=S)NN=C(c1ccccn1)c1ccccn1)C1CCCCC1 [DpC, di(2-pyridyl)ketone 4-cyclohexyl-4-methyl-3-thiosemicarbazone] | 3 ± 1 nM | comparable to Dp44mT | No significant decomposition | 107.34% | 97.48% | 95.68% | do not undergo significant metabolism | do not undergo significant metabolism | – | does not induce oxidation of oxyhemoglobin to methemoglobin
